These are literature values, as cited in patent US20230110485A1, “MULTI-LAYER PARTICLES OF FUNCTIONAL INGREDIENTS AND METHODS OF MAKING THE SAME” (Nulixir Inc., priority 2021, published 2023).

For data set [1] the following is noted: water and n-octanol; categorization at pH = 7 unless stated otherwise.
For data set [2], the system named is many strains of fungi.

`COc1cc2c(c(OC)c1OC)-c1c(cc3c(c1OC)OCO3)CC(C)C(C)C2` (single isomer, unassigned; (-)) [(-)-schisandrin B]: the lipophilicity (logP) in data set [1] is reported as roughly 4. Consider (-)-schisandrin C, for which the logP in data set [1] is listed as roughly 3.5. `O=CC=Cc1ccccc1` [Cinnamaldehyde]: in data set [2], the “inhibitory activity against fungi” value is given as “strong inhibitory activity”. In the case of `COc1cc2c(c(OC)c1OC)-c1c(cc(OC)c(OC)c1OC)C[C@](C)(O)[C@@H](C)C2` [schisandrol A], the log partition coefficient (logP) in data set [1] is roughly 3.4.

In the case of `COc1cc(/C=C/c2ccccc2)oc(=O)c1` [5,6-dehydrokawain], the logP in data set [1] is given as roughly 2.9.
